Results reported in the supplement of paper PMC10307832.

Tests used:
Experiment in all cases: relative viability (nuclei count vs DMSO), 5 days (fraction); higher = more cells survive
NCI-H1993 = tested on: NCI-H1993
How it was run: (§1)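 Lung cancer cell lines were pin-tool dosed in 1536-well plates on the day after seeding, with either a lone drug or a fixed anchor-drug dose plus five library-drug doses (not always all listed) in √10 steps. Nuclei were counted on 4× images after 5 days. Relative viability is the ratio of treated-well to vehicle-well nuclei counts, with each value a median of duplicate plates.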

NCI-H23 = tested on: NCI-H23
How it was run: as §1

NCI-H2170 = tested on: NCI-H2170
How it was run: as §1

NCI-H2228 = tested on: NCI-H2228
How it was run: as §1

SK-LU-1 = tested on: SK-LU-1
How it was run: as §1

NCI-H650 = tested on: NCI-H650
How it was run: as §1

SW 1573 = tested on: SW 1573
How it was run: as §1

SK-MES-1 = tested on: SK-MES-1
How it was run: as §1

NCI-H1734 = tested on: NCI-H1734
How it was run: as §1

RERF-LC-KJ = tested on: RERF-LC-KJ
How it was run: as §1

HCC-827 = tested on: HCC-827
How it was run: as §1

UMC-11 = tested on: UMC-11
How it was run: as §1

LC-2-ad = tested on: LC-2-ad
How it was run: as §1

NCI-H2342 = tested on: NCI-H2342
How it was run: as §1

LCLC-103H = tested on: LCLC-103H
How it was run: as §1

NCI-H1915 = tested on: NCI-H1915
How it was run: as §1

HCC-366 = tested on: HCC-366
How it was run: as §1

NCI-H1975 = tested on: NCI-H1975
How it was run: as §1

NCI-H2347 = tested on: NCI-H2347
How it was run: as §1

NCI-H1755 = tested on: NCI-H1755
How it was run: as §1

NCI-H1792 = tested on: NCI-H1792
How it was run: as §1

A-427 = tested on: A-427
How it was run: as §1

NCI-H1355 = tested on: NCI-H1355
How it was run: as §1

## Cc1csc(=NC2CCCCC2)n1/N=C/c1ccc(O)c(O)c1O [MIM1] + CC(=O)Nc1cccc(-n2c(=O)n(C3CC3)c(=O)c3c(Nc4ccc(I)cc4F)n(C)c(=O)c(C)c32)c1 [Trametinib] (partner 0.02 µM)
NCI-H1993; first compound 0.2 µM
  relative viability: 0.433
NCI-H1993; first compound 0.6325 µM
  relative viability: 0.43
NCI-H1993; first compound 2 µM
  relative viability: 0.511
NCI-H1993; first compound 6.325 µM
  relative viability: 0.448
NCI-H1993; first compound 20 µM
  relative viability: 0.351
NCI-H23; first compound 0.2 µM
  relative viability: 0.407
NCI-H23; first compound 0.6325 µM
  relative viability: 0.342
NCI-H23; first compound 2 µM
  relative viability: 0.326
NCI-H23; first compound 6.325 µM
  relative viability: 0.312
NCI-H23; first compound 20 µM
  relative viability: 0.163
NCI-H2170; first compound 0.2 µM
  relative viability: 0.859
NCI-H2170; first compound 0.6325 µM
  relative viability: 1.01
NCI-H2170; first compound 2 µM
  relative viability: 0.914
NCI-H2170; first compound 6.325 µM
  relative viability: 0.609
NCI-H2170; first compound 20 µM
  relative viability: 0.368
NCI-H2228; first compound 0.2 µM
  relative viability: 0.54
NCI-H2228; first compound 0.6325 µM
  relative viability: 0.642
NCI-H2228; first compound 2 µM
  relative viability: 0.506
NCI-H2228; first compound 6.325 µM
  relative viability: 0.307
NCI-H2228; first compound 20 µM
  relative viability: 0.13
SK-LU-1; first compound 0.2 µM
  relative viability: 0.471
SK-LU-1; first compound 0.6325 µM
  relative viability: 0.528
SK-LU-1; first compound 2 µM
  relative viability: 0.516
SK-LU-1; first compound 6.325 µM
  relative viability: 0.459
SK-LU-1; first compound 20 µM
  relative viability: 0.202
NCI-H650; first compound 0.2 µM
  relative viability: 1.02
NCI-H650; first compound 0.6325 µM
  relative viability: 0.946
NCI-H650; first compound 2 µM
  relative viability: 1.07
NCI-H650; first compound 6.325 µM
  relative viability: 0.939
NCI-H650; first compound 20 µM
  relative viability: 0.647
SW 1573; first compound 0.2 µM
  relative viability: 0.647
SW 1573; first compound 0.6325 µM
  relative viability: 0.574
SW 1573; first compound 2 µM
  relative viability: 0.553
SW 1573; first compound 6.325 µM
  relative viability: 0.361
SW 1573; first compound 20 µM
  relative viability: 0.13
SK-MES-1; first compound 0.2 µM
  relative viability: 0.569
SK-MES-1; first compound 0.6325 µM
  relative viability: 0.601
SK-MES-1; first compound 2 µM
  relative viability: 0.58
SK-MES-1; first compound 6.325 µM
  relative viability: 0.518
SK-MES-1; first compound 20 µM
  relative viability: 0.514
NCI-H1734; first compound 0.2 µM
  relative viability: 0.786
NCI-H1734; first compound 0.6325 µM
  relative viability: 0.676
NCI-H1734; first compound 2 µM
  relative viability: 0.607
NCI-H1734; first compound 6.325 µM
  relative viability: 0.583
NCI-H1734; first compound 20 µM
  relative viability: 0.183
RERF-LC-KJ; first compound 0.2 µM
  relative viability: 0.832
RERF-LC-KJ; first compound 0.6325 µM
  relative viability: 0.801
RERF-LC-KJ; first compound 2 µM
  relative viability: 0.666
RERF-LC-KJ; first compound 6.325 µM
  relative viability: 0.56
RERF-LC-KJ; first compound 20 µM
  relative viability: 0.3
HCC-827; first compound 0.2 µM
  relative viability: 0.501
HCC-827; first compound 0.6325 µM
  relative viability: 0.506
HCC-827; first compound 2 µM
  relative viability: 0.522
HCC-827; first compound 6.325 µM
  relative viability: 0.384
HCC-827; first compound 20 µM
  relative viability: 0.443
UMC-11; first compound 0.2 µM
  relative viability: 0.724
UMC-11; first compound 0.6325 µM
  relative viability: 0.267
UMC-11; first compound 2 µM
  relative viability: 0.751
UMC-11; first compound 6.325 µM
  relative viability: 0.475
UMC-11; first compound 20 µM
  relative viability: 0.156
LC-2-ad; first compound 0.2 µM
  relative viability: 0.904
LC-2-ad; first compound 0.6325 µM
  relative viability: 0.941
LC-2-ad; first compound 2 µM
  relative viability: 0.913
LC-2-ad; first compound 6.325 µM
  relative viability: 0.529
LC-2-ad; first compound 20 µM
  relative viability: 0.739
NCI-H2342; first compound 0.2 µM
  relative viability: 0.842
NCI-H2342; first compound 0.6325 µM
  relative viability: 0.903
NCI-H2342; first compound 2 µM
  relative viability: 0.787
NCI-H2342; first compound 6.325 µM
  relative viability: 0.716
NCI-H2342; first compound 20 µM
  relative viability: 1.1
LCLC-103H; first compound 0.2 µM
  relative viability: 0.662
LCLC-103H; first compound 0.6325 µM
  relative viability: 0.687
LCLC-103H; first compound 2 µM
  relative viability: 0.694
LCLC-103H; first compound 6.325 µM
  relative viability: 0.669
LCLC-103H; first compound 20 µM
  relative viability: 0.394
NCI-H1915; first compound 0.2 µM
  relative viability: 0.31
NCI-H1915; first compound 0.6325 µM
  relative viability: 0.27
NCI-H1915; first compound 2 µM
  relative viability: 0.279
NCI-H1915; first compound 6.325 µM
  relative viability: 0.314
NCI-H1915; first compound 20 µM
  relative viability: 0.357
HCC-366; first compound 0.2 µM
  relative viability: 0.321
HCC-366; first compound 2 µM
  relative viability: 0.3
HCC-366; first compound 6.325 µM
  relative viability: 0.0405
HCC-366; first compound 20 µM
  relative viability: 0.0273
NCI-H1975; first compound 0.2 µM
  relative viability: 0.366
NCI-H1975; first compound 0.6325 µM
  relative viability: 0.372
NCI-H1975; first compound 2 µM
  relative viability: 0.376
NCI-H1975; first compound 6.325 µM
  relative viability: 0.208
NCI-H1975; first compound 20 µM
  relative viability: 0.123
NCI-H2347; first compound 0.2 µM
  relative viability: 0.309
NCI-H2347; first compound 0.6325 µM
  relative viability: 0.358
NCI-H2347; first compound 2 µM
  relative viability: 0.283
NCI-H2347; first compound 6.325 µM
  relative viability: 0.315
NCI-H2347; first compound 20 µM
  relative viability: 0.27
NCI-H1755; first compound 0.2 µM
  relative viability: 0.719
NCI-H1755; first compound 0.6325 µM
  relative viability: 0.778
NCI-H1755; first compound 2 µM
  relative viability: 0.808
NCI-H1755; first compound 6.325 µM
  relative viability: 0.7
NCI-H1755; first compound 20 µM
  relative viability: 0.382
NCI-H1792; first compound 0.2 µM
  relative viability: 0.4
NCI-H1792; first compound 0.6325 µM
  relative viability: 0.376
NCI-H1792; first compound 2 µM
  relative viability: 0.456
NCI-H1792; first compound 6.325 µM
  relative viability: 0.384
NCI-H1792; first compound 20 µM
  relative viability: 0.325
A-427; first compound 0.2 µM
  relative viability: 0.758
A-427; first compound 0.6325 µM
  relative viability: 0.737
A-427; first compound 2 µM
  relative viability: 0.77
A-427; first compound 6.325 µM
  relative viability: 0.672
A-427; first compound 20 µM
  relative viability: 0.37
NCI-H1355; first compound 0.2 µM
  relative viability: 0.419
NCI-H1355; first compound 0.6325 µM
  relative viability: 0.436
NCI-H1355; first compound 2 µM
  relative viability: 0.457
NCI-H1355; first compound 6.325 µM
  relative viability: 0.384
NCI-H1355; first compound 20 µM
  relative viability: 0.375
